This is an account of results in patent publication US11098035B2, “Compounds, compositions, and methods for increasing CFTR activity” (Proteostasis Therapeutics, Inc., priority 2014, dated 2021).

Counter-ions that a name gives are not always drawn.

The target in the first experiment is T1, ΔF508-CFTR (Homo sapiens, UniProt P13569, DEL508-508).
T1 construct: Primary lung epithelial cells homozygous for the Cystic Fibrosis-causing ΔF508 mutation were differentiated for a minimum of 4 weeks; endogenous in cells; host or cells: primary human bronchial (lung) epithelial cells (hBE) homozygous for ΔF508, differentiated at an air-liquid interface
T1 sequence (P13569 with tags, fused parts or gaps DEL508-508): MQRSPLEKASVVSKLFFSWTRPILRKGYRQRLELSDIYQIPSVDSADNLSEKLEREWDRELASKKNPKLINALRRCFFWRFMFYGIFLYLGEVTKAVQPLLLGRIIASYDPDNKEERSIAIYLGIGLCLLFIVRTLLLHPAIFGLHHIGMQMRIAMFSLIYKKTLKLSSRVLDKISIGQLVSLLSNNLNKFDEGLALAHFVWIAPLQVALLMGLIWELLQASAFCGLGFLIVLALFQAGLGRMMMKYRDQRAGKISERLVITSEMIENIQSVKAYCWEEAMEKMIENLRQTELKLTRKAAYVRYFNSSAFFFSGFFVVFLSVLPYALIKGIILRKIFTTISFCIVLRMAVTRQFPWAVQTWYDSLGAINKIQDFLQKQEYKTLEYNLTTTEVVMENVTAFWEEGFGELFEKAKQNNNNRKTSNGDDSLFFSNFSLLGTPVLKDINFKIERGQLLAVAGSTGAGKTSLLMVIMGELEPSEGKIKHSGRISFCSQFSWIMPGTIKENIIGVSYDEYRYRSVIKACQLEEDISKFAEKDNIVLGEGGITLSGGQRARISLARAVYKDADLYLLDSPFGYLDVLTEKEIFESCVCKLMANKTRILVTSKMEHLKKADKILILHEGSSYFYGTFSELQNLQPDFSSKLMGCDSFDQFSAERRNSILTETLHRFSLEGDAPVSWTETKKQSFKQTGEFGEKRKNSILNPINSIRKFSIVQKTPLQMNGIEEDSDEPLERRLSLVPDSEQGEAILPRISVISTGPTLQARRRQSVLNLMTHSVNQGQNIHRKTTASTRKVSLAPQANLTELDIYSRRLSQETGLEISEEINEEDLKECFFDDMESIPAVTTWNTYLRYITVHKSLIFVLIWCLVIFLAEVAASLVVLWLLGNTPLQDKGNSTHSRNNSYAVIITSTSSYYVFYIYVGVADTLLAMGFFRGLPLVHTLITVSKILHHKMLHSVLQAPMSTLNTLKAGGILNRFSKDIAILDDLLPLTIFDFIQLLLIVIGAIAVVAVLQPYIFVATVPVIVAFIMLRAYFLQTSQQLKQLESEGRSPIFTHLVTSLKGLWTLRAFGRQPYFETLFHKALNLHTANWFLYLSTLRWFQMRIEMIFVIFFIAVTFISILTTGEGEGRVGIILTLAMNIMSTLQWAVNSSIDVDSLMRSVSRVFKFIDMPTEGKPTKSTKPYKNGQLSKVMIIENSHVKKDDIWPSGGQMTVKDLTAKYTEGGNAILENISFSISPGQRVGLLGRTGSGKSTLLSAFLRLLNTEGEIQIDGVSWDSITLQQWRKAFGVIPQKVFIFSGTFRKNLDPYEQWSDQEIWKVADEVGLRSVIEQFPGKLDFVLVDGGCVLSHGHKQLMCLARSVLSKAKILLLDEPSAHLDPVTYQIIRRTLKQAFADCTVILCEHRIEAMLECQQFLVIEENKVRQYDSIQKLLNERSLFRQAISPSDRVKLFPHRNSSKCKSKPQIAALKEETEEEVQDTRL
Put plainly: hBE Equivalent Current (Ieq) Assay. Particulars: compound at 10 uM and VX-809 at 1 uM, activity as % of VX-809 (1 uM); AUC of equivalent chloride current; primary lung epithelial cells homozygous for ΔF508, 24 h treatment. It is filed as cell-based. The procedure: Primary lung epithelial cells homozygous for the Cystic Fibrosis-causing ΔF508 mutation were differentiated for a minimum of 4 weeks in an air-liquid interface on Costar 24 well HTS filter plates prior to the equivalent current (Ieq) measurements. Cells were apically mucus-washed for 30 minutes 24 h prior to treatment with compounds. The basolateral media was removed and replaced with media containing the compound of interest diluted to its final concentration from DMSO stocks. Treated cells were incubated at 37° C. and 5% CO2 for 24 hours. At the end of the treatment period, the media was changed to the Ieq experimental solution for 30 minutes before the experiment and plates are maintained in a CO2-free incubator during this period. The plates containing the cells were then placed in pre-warmed heating blocks at 36° C.±0.5 for 15 minutes before measurements are taken. The transepithelial voltage (VT) and conductance (GT) were measured using a custom 24 channel current clamp (TECC-24) with 24 well electrode manifold. The Ieq assay measurements were made following additions with standardized time periods: • 1. The baseline VT and GT values were measured for approximately 20 minutes. • 2. Benzamil was added to block ENaC for 15 minutes. • 3. Forskolin plus VX-770 were added to maximally activate ΔF508-CFTR for 27 minutes. • 4. Bumetanide was added to inhibit the NaK2Cl cotransporter and shut-off secretion of chloride.
The activity data captured was the area under the curve (AUC) for the traces of the equivalent chloride current. The AUC was collected from the time of the forskolin/VX-770 addition until the inhibition by bumetanide addition. Correction in response to compound treatment was scored as the increase in the AUC for compound-treated samples over that of vehicle-treated samples.
The results are shown below in Table 2. ++ indicates activity ≥25% run at 10 uM of VX-809 at 1 uM, + indicates activity 10 to <25% run at 10 uM of VX-809 at 1 uM, **indicates activity ≥200% of VX-809 (1 uM) with compound at 10 uM and VX-809 at 1 uM; * indicates activity 100-200% of VX-809 (1 uM) with compound at 10 uM and VX-809 at 1 uM. ^## indicates activity ≥200% of VX-809 (3 uM) with compound at 10 uM and VX-809 at 3 uM; ^# indicates activity 100-200% of VX-809 (3 uM) with compound at 10 uM and VX-809 at 3 uM.
Consider `CC(OC1CCC1)c1nnc([C@H]2C[C@H](NC(=O)c3cc(-c4ccccc4)no3)C2)o1` (relative stereo) [Example 17, N-(trans-3-(5-(1-cyclobutoxyethyl)-1,3,4-oxadiazol-2-yl)cyclobutyl)-3-phenylisoxazole-5-carboxamide], for which the Ieq entry is “* (* indicates activity 100-200% of VX-809 (1 uM) with compound at 10 uM and VX-809 at 1 uM)”. For the compound `CC(OCC(F)(F)F)c1nnc(C2CC(NC(=O)c3cc(-c4ccccc4)no3)C2)o1` (single isomer, unassigned) [Example 15], the Ieq entry was “* (* indicates activity 100-200% of VX-809 (1 uM) with compound at 10 uM and VX-809 at 1 uM)”.

`Cn1nccc1CCCNC(=O)c1cc(-c2ccccc2)no1` [Example 7, N-(3-(1-methyl-1H-pyrazol-5-yl)propyl)-3-phenylisoxazole-5-carboxamide]: the Ieq entry is “* (* indicates activity 100-200% of VX-809 (1 uM) with compound at 10 uM and VX-809 at 1 uM)”.

With `O=C(NC1CC1)c1cc(-c2ccccc2)co1` [Example 12, N-cyclopropyl-4-phenylfuran-2-carboxamide], the Ieq result was “* (* indicates activity 100-200% of VX-809 (1 uM) with compound at 10 uM and VX-809 at 1 uM)”. Still for that read-out and setting: the value for `CO[C@H](C)c1nnc([C@H]2C[C@H](NC(=O)c3cc(-c4ccccc4)no3)C2)o1` [Example 14, N-(trans-3-(5-((R)-1-methoxyethyl)-1,3,4-oxadiazol-2-yl)cyclobutyl)-3-phenylisoxazole-5-carboxamide] was “* (* indicates activity 100-200% of VX-809 (1 uM) with compound at 10 uM and VX-809 at 1 uM)”; that for `C[C@@H](OCC1CN(C)C1)c1nnc([C@H]2C[C@H](NC(=O)c3cc(-c4ccccc4)no3)C2)o1` [Example 20, N-(trans-3-(5-((R)-1-((1-methylazetidin-3-yl)methoxy)ethyl)-1,3,4-oxadiazol-2-yl)cyclobutyl)-3-phenylisoxazole-5-carboxamide] was “* (* indicates activity 100-200% of VX-809 (1 uM) with compound at 10 uM and VX-809 at 1 uM)”; that for `CN1CC(c2nnc([C@H]3C[C@H](NC(=O)c4cc(-c5ccccc5)no4)C3)o2)C1` [Example 21, N-(trans-3-(5-(1-methylazetidin-3-yl)-1,3,4-oxadiazol-2-yl)cyclobutyl)-3-phenylisoxazole-5-carboxamide trifluoroacetate] was “* (* indicates activity 100-200% of VX-809 (1 uM) with compound at 10 uM and VX-809 at 1 uM)”.

With `O=C(NC1CC(c2nnc(C3COC3)o2)C1)c1cc(-c2ccccc2)no1` (stereo not drawn) [Example 22, N-trans-3-(5-(oxetan-3-yl)-1,3,4-oxadiazol-2-yl)cyclobutyl)-3-phenylisoxazole-5-carboxamide], the Ieq entry is “* (* indicates activity 100-200% of VX-809 (1 uM) with compound at 10 uM and VX-809 at 1 uM)”. In the case of `O=C(N[C@H]1C[C@H](c2nnc(C3CS(=O)(=O)C3)o2)C1)c1cc(-c2ccccc2)no1` [Example 23, N-(trans-3-(5-(1,1-dioxidothietan-3-yl)-1,3,4-oxadiazol-2-yl)cyclobutyl)-3-phenylisoxazole-5-carboxamide], the Ieq result is “* (* indicates activity 100-200% of VX-809 (1 uM) with compound at 10 uM and VX-809 at 1 uM)”. `CN1CCC(N2CC(c3nnc(C4CC(NC(=O)c5cc(-c6ccccc6)no5)C4)o3)C2)CC1` (stereo not drawn) [Example 24, N-cis-(3-(5-(1-(1-methylpiperidin-4-yl)azetidin-3-yl)-1,3,4-oxadiazol-2-yl)cyclobutyl)-3-phenylisoxazole-5-carboxamide]: the Ieq entry is “* (* indicates activity 100-200% of VX-809 (1 uM) with compound at 10 uM and VX-809 at 1 uM)”. Same read-out and setting: then `O=C(N[C@H]1C[C@H](c2nnc(C3CN(CC4CCC4)C3)o2)C1)c1cc(-c2ccccc2)no1` [Example 27, N-(trans-3-(5-(1-(cyclobutylmethyl)azetidin-3-yl)-1,3,4-oxadiazol-2-yl)cyclobutyl)-3-phenylisoxazole-5-carboxamide], with “* (* indicates activity 100-200% of VX-809 (1 uM) with compound at 10 uM and VX-809 at 1 uM)”; and `O=C(N[C@H]1C[C@@H](n2nncc2CO)C1)c1cc(-c2ccccc2)no1` [Example 28, N-(cis-3-(5-(hydroxymethyl)-1H-1,2,3-triazol-1-yl)cyclobutyl)-3-phenylisoxazole-5-carboxamide], with “** (**indicates activity ≥200% of VX-809 (1 uM) with compound at 10 uM and VX-809 at 1 uM)”.

In the case of `O=C(N[C@H]1C[C@@H](n2cc(CO)nn2)C1)c1cc(-c2ccccc2)no1` [Example 29, N-(cis-3-(4-(hydroxymethyl)-1H-1,2,3-triazol-1-yl)cyclobutyl)-3-phenylisoxazole-5-carboxamide], the Ieq entry was “** (**indicates activity ≥200% of VX-809 (1 uM) with compound at 10 uM and VX-809 at 1 uM)”.

For the compound `C[C@@H](O)c1nnc([C@H]2C[C@H](NC(=O)c3cc(-c4ccc(F)cc4)no3)C2)o1` [Example 36, 3-(4-fluorophenyl)-N-(trans-3-(5-((R)-1-hydroxyethyl)-1,3,4-oxadiazol-2-yl)cyclobutyl)isoxazole-5-carboxamide], the Ieq result was “* (* indicates activity 100-200% of VX-809 (1 uM) with compound at 10 uM and VX-809 at 1 uM)”. For the compound `C[C@@H](O)c1nnc(CC2CC(NC(=O)c3cc(-c4ccccc4)no3)C2)o1` (stereo partly drawn) [Example 37, N-((1S,3s)-3-((5-((R)-1-hydroxyethyl)-1,3,4-oxadiazol-2-yl)methyl)cyclobutyl)-3-phenylisoxazole-5-carboxamide], the Ieq entry is “** (**indicates activity ≥200% of VX-809 (1 uM) with compound at 10 uM and VX-809 at 1 uM)”. On the same count and under the same terms, then `C[C@@H](O)c1nnc(CC2CC(NC(=O)c3cc(-c4ccc(F)cc4)no3)C2)o1` (stereo partly drawn) [Example 40, 3-(4-Fluorophenyl)-N-[(1r,3r)-3-([5-[(1R)-1-hydroxyethyl]-1,3,4-oxadiazol-2-yl]methyl)cyclobutyl]-1,2-oxazole-5-carboxamide], with “** (**indicates activity ≥200% of VX-809 (1 uM) with compound at 10 uM and VX-809 at 1 uM)”.

The same experiment, now with this note: compound run at 10 uM, activity relative to VX-809 at 1 uM; AUC of equivalent chloride current; primary lung epithelial cells homozygous for ΔF508, 24 h treatment.
Turning to `COCCNC(=O)c1cc(-c2ccccc2)no1` [Example 1, N-(2-methoxyethyl)-3-phenylisoxazole-5-carboxamide], the Ieq entry is “++ (++ indicates activity ≥25% run at 10 uM of VX-809 at 1 uM)”. As to `O=C(NCC1CCCO1)c1cc(-c2ccccc2)no1` (centres unmarked) [Example 2, 3-phenyl-N-((tetrahydrofuran-2-yl)methyl)isoxazole-5-carboxamide], the Ieq result is “++ (++ indicates activity ≥25% run at 10 uM of VX-809 at 1 uM)”. `O=C(NCCN1CCOCC1)c1cc(-c2ccccc2)no1` [Example 3, N-(2-morpholinoethyl)-3-phenylisoxazole-5-carboxamide]: the Ieq entry is “++ (++ indicates activity ≥25% run at 10 uM of VX-809 at 1 uM)”. As for `O=C(NCCCn1ccnc1)c1cc(-c2ccccc2)no1` [Example 4, N-(3-(1H-imidazol-1-yl)propyl)-3-phenylisoxazole-5-carboxamide], the Ieq result was “+ (+ indicates activity 10 to <25% run at 10 uM of VX-809 at 1 uM)”. The same measure, in the same setting: the value for `Cn1nccc1CCCNC(=O)c1cc(-c2ccccc2)no1` [Example 7, N-(3-(1-methyl-1H-pyrazol-5-yl)propyl)-3-phenylisoxazole-5-carboxamide] was “++ (++ indicates activity ≥25% run at 10 uM of VX-809 at 1 uM)”; that for `COCCNC(=O)c1cc(-c2ccccc2)co1` [Example 8, N-(2-methoxyethyl)-4-phenylfuran-2-carboxamide] was “+ (+ indicates activity 10 to <25% run at 10 uM of VX-809 at 1 uM)”.

For the compound `O=C(NCC1CCCO1)c1cc(-c2ccccc2)co1` (centres unmarked) [Example 9, 4-phenyl-N-((tetrahydrofuran-2-yl)methyl)furan-2-carboxamide], the Ieq entry is given as “++ (++ indicates activity ≥25% run at 10 uM of VX-809 at 1 uM)”. Same read-out and setting: the value for `O=C(NCCN1CCOCC1)c1cc(-c2ccccc2)co1` [Example 10, N-(2-morpholinoethyl)-4-phenylfuran-2-carboxamide] was “+ (+ indicates activity 10 to <25% run at 10 uM of VX-809 at 1 uM)”; that for `O=C(NCCCn1ccnc1)c1cc(-c2ccccc2)co1` [Example 11, N-(3-(1H-imidazol-1-yl)propyl)-4-phenylfuran-2-carboxamide] was “++ (++ indicates activity ≥25% run at 10 uM of VX-809 at 1 uM)”; that for `O=C(NC1CC1)c1cc(-c2ccccc2)co1` [Example 12, N-cyclopropyl-4-phenylfuran-2-carboxamide] was “++ (++ indicates activity ≥25% run at 10 uM of VX-809 at 1 uM)”.
